Laboratory results taken from ChEMBL document CHEMBL5223113, “Several non-salt and solid thienopyridine derivatives as oral P2Y12 receptor inhibitors with good stability” (Bioorg Med Chem Lett, 2022).

Assays:
Rattus norvegicus [1] = species: Rattus norvegicus; test: Inhibition of thrombosis in anteriovenous bypassed rat; format: functional
Rattus norvegicus [2] = test: Inhibition of thrombosis in anteriovenous bypassed rat at 0.1 mg/kg relative to control; conditions: read-out: INH
[3] = Toxicity in beagle dog assessed as atrophy of hepatocyte at 1000 mg/kg oral gavage single dose; format: organism-based, Canis lupus familiaris; conditions: hepatocytes
[4] = Toxicity in rat assessed as bleeding time by tail cutting assay; conditions: in vivo
Rattus norvegicus [5] = test: Inhibition of thrombosis in anteriovenous bypassed rat at 0.3 mg/kg relative to control; format: functional
Rattus norvegicus [6] = test: Inhibition of thrombosis in anteriovenous bypassed rat at 1 mg/kg relative to control; format: functional
Rattus norvegicus [7] = test: Anti-platelet activity against ADP-induced platelet aggregation in rat assessed as inhibition of platelet aggregation at 0.25 mg/kg relative to control; format: functional
[8] = Toxicity in beagle dog assessed as vomiting at 1000 mg/kg oral gavage single dose; format: organism-based, Canis lupus familiaris; conditions: in vivo
Rattus norvegicus [9] = test: Anti-platelet activity against ADP-induced platelet aggregation in rat assessed as inhibition of platelet aggregation at 0.5 mg/kg relative to control; format: functional
Rattus norvegicus [10] = test: Anti-platelet activity against ADP-induced platelet aggregation in rat assessed as inhibition of platelet aggregation at 1 mg/kg relative to control; format: functional
[11] = Toxicity in rat assessed as bleeding time by measuring ratio of ED200 to ED50 ratio by tail cutting assay; conditions: in vivo
Rattus norvegicus [12] = test: Inhibition of thrombosis in anteriovenous bypassed rat at 3 mg/kg relative to control; format: functional
Rattus norvegicus [13] = species: Rattus norvegicus; test: animal or person; conditions: Platelet, read-out: INH
Description: Anti-platelet activity against ADP-induced platelet aggregation in rat assessed as inhibition of platelet aggregation at 2.5 mg/kg relative to control

[14] = Stability in human plasma assessed as compound remaining measured at 90 mins relative to control; format: ADME, cell-free; conditions: read-out: Stability
[15] = Stability in human plasma assessed as compound remaining measured at 120 mins relative to control; format: ADME, cell-free; conditions: read-out: Stability
Rattus norvegicus [16] = test: Inhibition of thrombosis in anteriovenous bypassed rat at 30 mg/kg relative to control; format: functional
[17] = Stability in human plasma assessed as compound remaining measured at 20 mins relative to control; format: ADME, cell-free; conditions: read-out: Stability
Rattus norvegicus [18] = species: Rattus norvegicus; test: animal or person; conditions: Platelet, read-out: INH; remark: listed apart in the source
Description: Anti-platelet activity against ADP-induced platelet aggregation in rat assessed as inhibition of platelet aggregation at 10 mg/kg relative to control

[19] = Stability in human plasma assessed as compound remaining measured at 60 mins relative to control; format: ADME, cell-free; conditions: read-out: Stability
[20] = Stability in human plasma assessed as compound remaining measured at 10 mins relative to control; format: ADME, cell-free; conditions: read-out: Stability
[21] = Stability in human plasma assessed as compound remaining measured at 30 mins relative to control; format: ADME, cell-free; conditions: read-out: Stability
Rattus norvegicus [22] = test: Inhibition of thrombosis in anteriovenous bypassed rat at 10 mg/kg relative to control; format: functional
[23] = Stability in human plasma assessed as compound remaining measured at 45 mins relative to control; format: ADME, cell-free; conditions: read-out: Stability
Rattus norvegicus [24] = species: Rattus norvegicus; test: animal or person; conditions: Platelet, read-out: INH; remark: listed apart in the source
Description: Anti-platelet activity against ADP-induced platelet aggregation in rat assessed as inhibition of platelet aggregation at 5 mg/kg relative to control

[25] = Stability in human plasma assessed as compound remaining measured at 5 mins relative to control; format: ADME, cell-free; conditions: read-out: Stability
[26] = Toxicity in beagle dog assessed as dilated pupil at 100 to 300 mg/kg/day oral gavage observed for 14 days; format: organism-based, Canis lupus familiaris; conditions: in vivo, 336 h, dose 100-300 mg/kg/day, time 14 day
[27] = Toxicity in beagle dog assessed as vomiting at 100 to 300 mg/kg/day oral gavage observed for 14 days; format: organism-based, Canis lupus familiaris; conditions: in vivo, 336 h, dose 100-300 mg/kg/day, time 14 day
[28] = Stability in human plasma assessed as compound remaining measured at 360 mins relative to control; format: ADME, cell-free; conditions: read-out: Stability
[29] = Toxicity in beagle dog assessed as electrocardiogram at 100 to 300 mg/kg/day oral gavage observed for 14 days; format: organism-based, Canis lupus familiaris; conditions: in vivo, 336 h, dose 100-300 mg/kg/day, time 14 day
[30] = Toxicity in beagle dog assessed as abnormality in blood and biochemical index at 2000 mg/kg oral gavage observed for 14 days; format: organism-based, Canis lupus familiaris; conditions: in vivo, 336 h, time 14 day
[31] = Stability in human plasma assessed as compound remaining measured at 240 mins relative to control; format: ADME, cell-free; conditions: read-out: Stability
[32] = Toxicity in beagle dog assessed as swelling of hepatocyte at 100 mg/kg/day oral gavage observed for 14 days; format: organism-based, Canis lupus familiaris; conditions: hepatocytes, 336 h, time 14 day
[33] = Toxicity in beagle dog assessed as emesis at 100 mg/kg/day oral gavage observed for 14 days; format: organism-based, Canis lupus familiaris; conditions: in vivo, 336 h, time 14 day
Rattus norvegicus [34] = test: Anti-platelet activity against ADP-induced platelet aggregation in rat assessed as inhibition of platelet aggregation at 0.75 mg/kg relative to control; format: functional
[35] = Toxicity in beagle dog assessed as increase in liver weight at 100 mg/kg/day oral gavage observed for 14 days; format: organism-based, Canis lupus familiaris; conditions: in vivo, 336 h, time 14 day
[36] = Toxicity in beagle dog assessed as increase in ALP at 100 mg/kg/day oral gavage observed for 14 days; format: organism-based, Canis lupus familiaris; conditions: in vivo, 336 h, time 14 day
[37] = Toxicity in beagle dog assessed as death at 2000 mg/kg oral gavage observed for 14 days; format: organism-based, Canis lupus familiaris; conditions: in vivo, 336 h, time 14 day
Rattus norvegicus [38] = test: Anti-platelet activity against ADP-induced platelet aggregation in rat assessed as inhibition of platelet aggregation at 3 mg/kg relative to control; format: functional
[39] = Toxicity in beagle dog assessed as ALP level at 100 to 300 mg/kg/day oral gavage observed for 14 days; format: organism-based, Canis lupus familiaris; conditions: in vivo, 336 h, dose 100-300 mg/kg/day, time 14 day
[40] = Toxicity in beagle dog assessed as decrease in platelet aggregation at 100 mg/kg/day oral gavage observed for 14 days; format: organism-based, Canis lupus familiaris; conditions: in vivo, 336 h, time 14 day
[41] = Toxicity in beagle dog assessed as mydriasis at 100 mg/kg/day oral gavage observed for 14 days; format: organism-based, Canis lupus familiaris; conditions: in vivo, 336 h, time 14 day
[42] = Stability in human plasma assessed as compound remaining measured at 180 mins relative to control; format: ADME, cell-free; conditions: read-out: Stability
Rattus norvegicus [43] = test: Anti-platelet activity against ADP-induced platelet aggregation in rat assessed as inhibition of platelet aggregation at 1.5 mg/kg relative to control; format: functional
[44] = Stability in human plasma assessed as compound remaining measured at 300 mins relative to control; format: ADME, cell-free; conditions: read-out: Stability
[45] = Stability in human plasma assessed as compound remaining measured at 150 mins relative to control; format: ADME, cell-free; conditions: read-out: Stability
[46] = Toxicity in beagle dog assessed as electrocardiogram at 2000 mg/kg oral gavage observed for 14 days; format: organism-based, Canis lupus familiaris; conditions: in vivo, 336 h, time 14 day
[47] = Toxicity in beagle dog assessed as ALT level at 100 to 300 mg/kg/day oral gavage observed for 14 days; format: organism-based, Canis lupus familiaris; conditions: in vivo, 336 h, dose 100-300 mg/kg/day, time 14 day
[48] = Toxicity in beagle dog assessed as abnormality in blood and biochemical index at 100 to 300 mg/kg/day oral gavage observed for 14 days; format: organism-based, Canis lupus familiaris; conditions: in vivo, 336 h, dose 100-300 mg/kg/day, time 14 day
Rattus norvegicus [49] = test: Anti-platelet activity against ADP-induced platelet aggregation in rat assessed as inhibition of platelet aggregation at 4 mg/kg relative to control; format: functional
Rattus norvegicus [50] = test: Anti-platelet activity against ADP-induced platelet aggregation in rat assessed as inhibition of platelet aggregation at 2 mg/kg relative to control; format: functional

## CC(=O)Oc1cc2c(s1)CCN(C(C(=O)C1CC1)c1ccccc1F)C2 (stereo unspecified) [PRASUGREL]
Rattus norvegicus [1]
  ED50: 11.8 mg/kg
Rattus norvegicus [2]
  inhibition in vivo at 0.1 mg/kg: 6%
[3]
  Activity: Toxic
[4]
  ED200: 0.513 mg/kg
Rattus norvegicus [5]
  inhibition in vivo at 0.3 mg/kg: 9%
Rattus norvegicus [6]
  inhibition in vivo at 1 mg/kg: 35.7%
Rattus norvegicus [7]
  inhibition in vivo at 0.25 mg/kg: 13.3%
[8]
  Activity: Toxic
Rattus norvegicus [9]
  inhibition in vivo at 0.5 mg/kg: 37.8%
Rattus norvegicus [10]
  inhibition in vivo at 1 mg/kg: 13.3%
[11]
  selectivity ratio: 0.838
Rattus norvegicus [12]
  inhibition in vivo at 3 mg/kg: 70.2%

## COC(=O)[C@H](c1ccccc1Cl)N1CCc2sccc2C1 [CLOPIDOGREL]
Rattus norvegicus [13]
  inhibition in vivo at 2.5 mg/kg: 26.5%
[14]
  remaining at 1.5 h: 94%
[15]
  remaining at 2 h: 96%
Rattus norvegicus [16]
  inhibition in vivo at 30 mg/kg: 72.6%
[17]
  remaining at 20 min: 100%
Rattus norvegicus [18]
  inhibition in vivo at 10 mg/kg: 90.5%
[19]
  remaining at 1 h: 100%
[20]
  remaining at 10 min: 102%
[21]
  remaining at 0.5 h: 104%
Rattus norvegicus [22]
  inhibition in vivo at 10 mg/kg: 41.5%
[23]
  remaining at 0.75 h: 101%
Rattus norvegicus [24]
  inhibition in vivo at 5 mg/kg: 59.7%
[25]
  remaining at 5 min: 106%

## C/C=C/C=C/C(=O)Oc1cc2c(s1)CCN([C@H](C(=O)OC)c1ccccc1Cl)C2
[26]
  Activity: Non-Toxic
Rattus norvegicus [1]
  ED50: 11.8 mg/kg
[14]
  remaining at 1.5 h: 63.8%
[27]
  Activity: Non-Toxic
[4]
  ED200: 0.822 mg/kg
Rattus norvegicus [6]
  inhibition in vivo at 1 mg/kg: 36.5%
[28]
  remaining at 6 h: 14.8%
[29]
  Activity: Non-Toxic
[30]
  Activity: Non-Toxic
[31]
  remaining at 4 h: 30%
[32]
  Activity: Toxic
[33]
  Activity: Toxic
[15]
  remaining at 2 h: 62.9%
Rattus norvegicus [16]
  inhibition in vivo at 30 mg/kg: 68.6%
Rattus norvegicus [34]
  inhibition in vivo at 0.75 mg/kg: 7%
[17]
  remaining at 20 min: 97.1%
[35]
  Activity: Toxic
[19]
  remaining at 1 h: 76.8%
[36]
  Activity: Toxic
[20]
  remaining at 10 min: 92.8%
[21]
  remaining at 0.5 h: 86.6%
[37]
  Activity: Non-Toxic
Rattus norvegicus [38]
  inhibition in vivo at 3 mg/kg: 85.8%
[39]
  Activity: Non-Toxic
[40]
  Activity: Toxic
Rattus norvegicus [22]
  inhibition in vivo at 10 mg/kg: 52.1%
[41]
  Activity: Toxic
[42]
  remaining at 3 h: 43%
[11]
  selectivity ratio: 0.52
[23]
  remaining at 0.75 h: 83.9%
Rattus norvegicus [43]
  inhibition in vivo at 1.5 mg/kg: 50.8%
[44]
  remaining at 5 h: 20.9%
[45]
  remaining at 2.5 h: 46.7%
[25]
  remaining at 5 min: 93.5%
[46]
  Activity: Non-Toxic
[47]
  Activity: Non-Toxic
Rattus norvegicus [12]
  inhibition in vivo at 3 mg/kg: 40.3%
[48]
  Activity: Non-Toxic

## C=C/C=C/C(=O)Oc1cc2c(s1)CCN([C@H](C(=O)OC)c1ccccc1Cl)C2
Rattus norvegicus [49]
  inhibition in vivo at 4 mg/kg: 100%
Rattus norvegicus [50]
  inhibition in vivo at 2 mg/kg: 97.6%
Rattus norvegicus [10]
  inhibition in vivo at 1 mg/kg: 44%
